For one assay, the target named is RRE. The following applies: direct binding, highly specific for the RRE; read-out: KD of rev binding to RRE; cited from earlier work.
The next assay concerns the target 68AP-RRE. The assay can be described thus: 2-AP fluorescence titration of 68AP-RRE with aminoglycosides. The assay is classed as binding, HIV-1. The method, then:
For example, using the 68AP-RRE construct, three classes of binding sites for the Neomycin B can be detected.
(§1) The fluorescence of RNA oligonucleotide samples (150 μL), selectively labeled with 2-AP, was measured at 10° C. on a SPEX Fluoromax-2 spectrofluorometer (Instruments, SA, Edison, N.J.) using a 0.3 cm square cuvette. RRE sample concentration was typically 100 nM in either standard buffer A (140 mM NaCl, 5 mM KCl, 1 mM MgCl2, 1 mM CaCl2, and 20 mM HEPES [7.4 pH]) or buffer B (25 mM NaCl, 5 mM KCl and 1 mM Cacodylate [6.5 pH]). Emission spectra were recorded over the wavelength range of 330 to 450 nm with an excitation wavelength of 310 nm. The spectral bandpass was 5 nm for all spectra. The dissociation constant for rev binding to RRE-72AP was determined by following the increase in fluorescence at 370 nm as a fixed concentration of the fluorescent RNA was titrated with increasing amounts if rev. Similarly, the binding of aminoglycosides was followed by monitoring the change in 2-AP fluorescence as a fixed concentration of RRE-72AP or RRE-68AP was titrated with increasing amounts of the aminoglycoside. Single site binding of rev or aminoglycoside was fitted to Formula I: […]
where Fo and Ff are the initial and final fluorescence intensities, respectively, [RRE]tot is the total RRE concentration, and [L]tot is the total concentration of rev, aminoglycoside or other ligands. Aminoglycoside binding to multiple sites on RRE was modeled using the computer program Dynafit. Competitive displacement assays were performed to determine which aminoglycoside binding were inhibitory to rev binding. For these experiments, a solution of 2-AP labeled RRE was incubated with a fixed concentration of Neomycin B (or rev peptide), and the fluorescence change followed as increasing amounts of competing rev peptide (or Neomycin B) was added to the solution. The fluorescence emission intensities at 370 nm as a function of total added ligand concentration were fit to a given molecular mechanism by non-linear least squared regression using the computer program Dynafit.

The target of another assay is 72AP-RRE. The assay can be described thus: 2-AP fluorescence titration of RRE-72AP with rev peptide. More on the design: species or system HIV-1. The following applies: fluorescence at 370 nm, 10° C., wild type affinity, read-out: KD of rev peptide binding to 2-AP RRE. The procedure: The fluorescence of RNA oligonucleotide samples (150 μL), selectively labeled with 2-AP, was measured at 10° C. on a SPEX Fluoromax-2 spectrofluorometer (Instruments, SA, Edison, N.J.) using a 0.3 cm square cuvette. RRE sample concentration was typically 100 nM in either standard buffer A (140 mM NaCl, 5 mM KCl, 1 mM MgCl2, 1 mM CaCl2, and 20 mM HEPES [7.4 pH]) or buffer B (25 mM NaCl, 5 mM KCl and 1 mM Cacodylate [6.5 pH]). Emission spectra were recorded over the wavelength range of 330 to 450 nm with an excitation wavelength of 310 nm. The spectral bandpass was 5 nm for all spectra. The dissociation constant for rev binding to RRE-72AP was determined by following the increase in fluorescence at 370 nm as a fixed concentration of the fluorescent RNA was titrated with increasing amounts if rev. Similarly, the binding of aminoglycosides was followed by monitoring the change in 2-AP fluorescence as a fixed concentration of RRE-72AP or RRE-68AP was titrated with increasing amounts of the aminoglycoside. Single site binding of rev or aminoglycoside was fitted to Formula I:
F=−{(Fo−Ff)/2*[RRE]tot}{b−{square root over ((b^2−4[L]tot[RRE]tot))}}+Fo (1)
where Fo and Ff are the initial and final fluorescence intensities, respectively, [RRE]tot is the total RRE concentration, and [L]tot is the total concentration of rev, aminoglycoside or other ligands. […]

The next assay has as its target 72AP-RRE-peptide complex. Kind of assay: Competitive displacement: 72AP-RRE-peptide complex (1:1) titrated with Neomycin B, Dynafit fit. Format: binding, HIV-1. The method, then:
Quantitative analysis of the binding event indicates the rev peptide binds to 2-AP RRE with wild type affinity (KD˜13±2 nM). The fluorescent 72AP-RRE construct is also a useful probe for assaying small molecule binding to RRE, as well as determining if the small molecule is an effective inhibitor of the rev-RRE interaction. For example, it has been shown using the aminoglycoside Neomycin B, a known inhibitor of RRE-rev interaction, that the 72AP-RRE construct can be used to detect small molecule inhibition of the rev-RRE interaction. […]
as §1, with “RRE sample concentration was typically 100 nM in either standard buffer A (140 mM NaCl, 5 mM KCl, 1 mM MgCl2, 1 mM CaCl2, and 20 mM HEPES [7.4 pH]) or buffer B (25 mM NaCl, 5 mM KCl and 1 mM Cacodylate [6.5 pH]).” left out, “The spectral bandpass was 5 nm for all spectra.” left out, “aminoglycoside.” for “aminoglycoside. Single site binding of rev or aminoglycoside was fitted to Formula I:”

Where two headings read alike, the source gives them in different places. *1 amine or outer side, *2 acyl side, *3 side chain or, on linkers, in order; H or OH if unused. Where no end group is shown, it is not given here. Suc = O=C(CCC(=O)[*:2])[*:1]

For “rev: HIV-1 regulatory protein rev that binds the rev-responsive element (RRE)”, the equilibrium dissociation constant (Kd) on RRE is 1 to 3 nM.
As to `[H]/N=C(/N)N[C@H]1[C@H](O)[C@@H](O)[C@H](O[C@@H]2O[C@@H](C)[C@](O)(C=O)[C@H]2O[C@@H]2O[C@@H](CO)[C@H](O)[C@@H](O)[C@@H]2NC)[C@@H](N/C(N)=N\[H])[C@@H]1O` [Streptomycin], the Kd at 68AP-RRE (RRE, reported alongside the 68AP-RRE data, read-out: KD, low affinity binding interaction with RRE) was determined as 1500 nM.
As to Suc-TRQARRNRRWRERQRAAAK [rev peptide], the dissociation constant Kd on 72AP-RRE is roughly 13 nM.
On to `NC[C@@H]1O[C@H](O[C@H]2[C@@H](O)[C@H](O[C@@H]3[C@@H](O)[C@H](N)C[C@H](N)[C@H]3O[C@H]3O[C@H](CN)[C@@H](O)[C@H](O)[C@H]3N)O[C@@H]2CO)[C@H](N)[C@@H](O)[C@@H]1O` [Neomycin B], for which the dissociation constant Kd was roughly 230 nM at 72AP-RRE-peptide complex (read-out: KD, first tight site); roughly 1900 nM on 72AP-RRE-peptide complex (read-out: KD, second site, competitive with rev); 240 ± 40 nM at 68AP-RRE (68AP-RRE construct, read-out: KD, first site, non-inhibitory to rev binding); 1800 ± 80 nM at 68AP-RRE (68AP-RRE construct, read-out: KD, second site, inhibited rev binding in a competitive fashion); roughly 40000 nM at 68AP-RRE (68AP-RRE construct, read-out: KD, third class of sites, non-specific binding).

For orientation: Kd means a measure of binding affinity in units of concentration.
